US20230240297A1, “SELECTIVE HERBICIDES BASED ON SUBSTITUTED ISOXAZOLIN CARBOXAMIDES AND CYPROSULFAMIDE” (Bayer Aktiengesellschaft, priority 2020, published 2023)

Assays:
Format in all cases: in vivo, maize
[1] = system: ZEAMA Abraxas; assay: Tank-mix; post-emergence, crop damage with and without safener; details: for HER effect + SAF / HER effect: Final assessment; for HER effect: no safener
Procedure: (§1) Seeds of crops (spring wheat, TRZAS; spring barley, HORVS; maize, ZEAMA) were placed in sandy loam soil in peat pots, covered with soil and cultivated in a greenhouse under good growth conditions. Two to three weeks after sowing, the test plants were treated at the 1 to 3-leaf stage. The herbicide/safener active compound combinations according to the invention, formulated as wettable powders or emulsion concentrates, and, in parallel tests, the correspondingly formulated individual active compounds were sprayed onto the green parts of the plants in various dosages using an amount of water of 300 1/ha (converted).
(§2) The pots were returned under good growing conditions in a glasshouse and a visual assessment of herbicidal effects was made at intervals from 1 to 3 weeks after herbicide application (DAT = days after treatment). Assessment was on a percentage basis in comparison with untreated control plants (0% = no injury, 100% = complete kill).

[2] = system: ZEAMA Sileno; assay: Seed treatment with safener; post-emergence herbicide application; parameters: Reduction [Difference]: scale not given here; details: Final assessment; for Reduction [%] / Reduction [Difference]: Cyprosulfamide 0.5 g a.i./kg seed; for Reduction [Difference]: damage without safener - damage with safener; for HER effect + SAF (crop damage with safener): Cyprosulfamide seed treatment 0.5 g a.i./kg seed; for HER effect (crop damage, herbicide without safener): no safener
Procedure: For the safener seed treatment, sufficient seeds of the respective crops (spring wheat, TRZAS; spring barley, HORVS; maize, ZEAMA) were weighed into screw top glass bottles approximately twice the volume of the seeds.
The specified safeners, formulated as wettable powder (WP) were weighed out so that the specified rates (g a.i./kg seed) would be obtained, dissolved in water (1 ml water per 10 g of seeds), and added to the seeds to produce a slurry.
The bottles were capped and then placed in an overhead shaker (set at medium speed for ca. 60 minutes) so that the seeds were evenly coated with the slurry. The bottles were uncapped and the seeds were either placed on paper and dried for an interval of 3-4 hours prior to sowing, or directly sown. Seeds were placed in sandy loam soil in pots of a diameter of 7-8 cm, covered with soil, and cultivated in a greenhouse under good growth conditions.
Post-emergence application of the specified herbicides was done when the plants had reached growth stage BBCH11-13, on two sets of plants:
a) seed treatment with safener, as described above b) no safener treatment
The herbicides were formulated as WP and sprayed onto the green parts of the plants as an aqueous suspension at an equivalent water application rate of 300 1/ha, with addition of wetting agent and adjuvants (e.g. Mero, 1.5 1/ha; ammonium sulphate, 2 kg/ha)
After application, the test plants were kept in the greenhouse under good growth conditions.
Values in the table below are mean values of at least 2 replicates.

[3] = system: ZEAMA Sileno; assay: Tank-mix; post-emergence, crop damage with and without safener; details: for HER effect + SAF / HER effect: Final assessment; for HER effect: no safener
Procedure: as §1, §2

[4] = HER 32 g a.i./ha, cyprosulfamide 100 g a.i./ha
[5] = HER dose 32 g a.i./ha + cyprosulfamide 100 g a.i./ha tank-mix
[6] = HER 8 g a.i./ha, cyprosulfamide 50 g a.i./ha
[7] = HER dose 8 g a.i./ha + cyprosulfamide 50 g a.i./ha tank-mix
[8] = HER 2 g a.i./ha, cyprosulfamide 50 g a.i./ha
[9] = HER 2 g a.i./ha, cyprosulfamide 50 g a.i./ha, damage without safener - damage with safener
[10] = HER dose 2 g a.i./ha + cyprosulfamide 50 g a.i./ha tank-mix
[11] = HER dose 2 g a.i./ha, 0% = no injury, 100% = complete kill

Compound	Reduction [%] [1, 4] [%]	Reduction [Difference] [1, 4]	HER effect + SAF [1, 5] [%]	HER effect ([1]; HER dose 32 g a.i./ha) [%]	Reduction [%] [1, 6] [%]	Reduction [Difference] [1, 6]	HER effect + SAF [1, 7] [%]	HER effect ([1]; HER dose 8 g a.i./ha) [%]	Reduction [%] ([2]; HER dose 8 g a.i./ha)	Reduction [Difference] ([2]; HER dose 8 g a.i./ha)	HER effect + SAF (crop damage with safener) ([2]; HER dose 8 g a.i./ha) [%]	HER effect (crop damage, herbicide without safener) ([2]; HER dose 8 g a.i./ha) [%]	Reduction [%] ([2]; HER dose 32 g a.i./ha)	Reduction [Difference] ([2]; HER dose 32 g a.i./ha)	HER effect + SAF (crop damage with safener) ([2]; HER dose 32 g a.i./ha) [%]	HER effect (crop damage, herbicide without safener) ([2]; HER dose 32 g a.i./ha) [%]	Reduction [%] [3, 6] [%]	Reduction [Difference] [3, 6]	Reduction [%] [3, 4] [%]	Reduction [Difference] [3, 4]	also measured
CC1(C(=O)NC2C=CC(C(=O)OCCCl)C2)CC(c2cc(F)cc(F)c2)=NO1 (mixture of isomers) [Example 1.47]	84	52	10	62																	
C=CC1(C(=O)NC2CC=C(C(=O)OC)C2)CC(c2cc(F)cc(F)c2)=NO1 (mixture of isomers) [Example 1.60]	79	74	20	94	69	38	17	55	94	50	3	53	88	57	8	65					
C=CC1(C(=O)NC2COC(C(=O)OC)C2)CC(c2cc(C)cc(F)c2)=NO1 (mixture of isomers) [Example 1.71]	67	61	30	91	71	41	17	58					91	29	3	32					
CC1(C(=O)NC2COC(C(=O)OCc3cccc(F)c3)C2)CC(c2cc(F)cc(F)c2)=NO1 (mixture of isomers) [Example 1.76]	26	25	70	95	74	67	23	90	100	22	0	22	74	20	7	27					
C=CC1(C(=O)NC2COC(C(=O)OCc3ccc(OC)cc3)C2)CC(c2cc(C)cc(F)c2)=NO1 (mixture of isomers) [Example 1.86]					84	27	5	32													
CCOC(=O)C1C=CC(NC(=O)C2(C(F)(F)F)CC(c3ccccc3)=NO2)C1 (centres unmarked) [Example 1.9]									100	78	0	78	100	85	0	85	87	68	59	50	HER effect + SAF [3, 7]: 10%; HER effect ([3]; HER dose 8 g a.i./ha): 78%; HER effect + SAF [3, 5]: 35%; HER effect ([3]; HER dose 32 g a.i./ha): 85%
COC(=O)C1C=CC(NC(=O)C2(C(F)(F)F)CC(c3cccc(F)c3)=NO2)C1 (centres unmarked) [Example 1.18]									89	84	10	94	79	77	20	97	66	62	72	70	HER effect + SAF [3, 7]: 32%; HER effect ([3]; HER dose 8 g a.i./ha): 94%; HER effect + SAF [3, 5]: 27%; HER effect ([3]; HER dose 32 g a.i./ha): 97%
C=CC1(C(=O)NC2C=CC(C(=O)O)C2)CC(c2cc(F)cc(F)c2)=NO1 (centres unmarked) [Example 1.58]	68	65	30	95	87	54	8	62					64	45	25	70					Reduction [%] ([2]; HER dose 2 g a.i./ha): 100%; Reduction [Difference] ([2]; HER dose 2 g a.i./ha): 20; HER effect + SAF (crop damage with safener) ([2]; HER dose 2 g a.i./ha): 0%; HER effect (crop damage, herbicide without safener) ([2]; HER dose 2 g a.i./ha): 20%
COC(=O)C1=CC(NC(=O)C2(C)CC(c3cc(F)cc(F)c3)=NO2)CC1 (centres unmarked) [Example 1.63]									85	72	13	85	85	75	13	88	73	62	52	46	Reduction [%] [3, 8]: 87%; Reduction [Difference] [3, 9]: 20; HER effect + SAF [3, 10]: 3%; HER effect [3, 11]: 23%; HER effect + SAF [3, 7]: 23%; HER effect ([3]; HER dose 8 g a.i./ha): 85%; HER effect + SAF [3, 5]: 42%; HER effect ([3]; HER dose 32 g a.i./ha): 88%; Reduction [%] ([2]; HER dose 2 g a.i./ha): 100%; Reduction [Difference] ([2]; HER dose 2 g a.i./ha): 23; HER effect + SAF (crop damage with safener) ([2]; HER dose 2 g a.i./ha): 0%; HER effect (crop damage, herbicide without safener) ([2]; HER dose 2 g a.i./ha): 23%
C=CC1(C(=O)NC2COC(C(=O)OC)C2)CC(c2cc(F)cc(F)c2)=NO1 (centres unmarked) [Example 1.69]									82	75	17	92	75	70	23	93	76	70	73	68	HER effect + SAF [3, 7]: 22%; HER effect ([3]; HER dose 8 g a.i./ha): 92%; HER effect + SAF [3, 5]: 25%; HER effect ([3]; HER dose 32 g a.i./ha): 93%
C=CC1(C(=O)NC2COC(C(=O)OC)C2)CC(c2cc(F)cc(F)c2)=NO1 (centres unmarked) [Example 1.70]									77	75	22	97	67	66	32	98	21	20	41	40	Reduction [%] [3, 8]: 77%; Reduction [Difference] [3, 9]: 68; HER effect + SAF [3, 10]: 20%; HER effect [3, 11]: 88%; HER effect + SAF [3, 7]: 77%; HER effect ([3]; HER dose 8 g a.i./ha): 97%; HER effect + SAF [3, 5]: 58%; HER effect ([3]; HER dose 32 g a.i./ha): 98%; Reduction [%] ([2]; HER dose 2 g a.i./ha): 80%; Reduction [Difference] ([2]; HER dose 2 g a.i./ha): 70; HER effect + SAF (crop damage with safener) ([2]; HER dose 2 g a.i./ha): 18%; HER effect (crop damage, herbicide without safener) ([2]; HER dose 2 g a.i./ha): 88%
